Assay results reported in patent US9782399B2, “Pharmaceutical compositions which inhibit FKBP52-mediated regulation of androgen receptor function and methods of using same” (The United States of America, as represented by the …, priority 2009, dated 2017).

Key:
wild type human AR = target: T1, wild type human AR (Homo sapiens, UniProt P10275); assay: Yeast AR-mediated β-galactosidase reporter assay, control strain (wild type AR alone); type: cell-based; conditions: without FKBP52
T1 construct: expressed in transfected cells; host or cells: Saccharomyces cerevisiae W303 (PDR5 deleted)
T1 sequence (P10275 1-920): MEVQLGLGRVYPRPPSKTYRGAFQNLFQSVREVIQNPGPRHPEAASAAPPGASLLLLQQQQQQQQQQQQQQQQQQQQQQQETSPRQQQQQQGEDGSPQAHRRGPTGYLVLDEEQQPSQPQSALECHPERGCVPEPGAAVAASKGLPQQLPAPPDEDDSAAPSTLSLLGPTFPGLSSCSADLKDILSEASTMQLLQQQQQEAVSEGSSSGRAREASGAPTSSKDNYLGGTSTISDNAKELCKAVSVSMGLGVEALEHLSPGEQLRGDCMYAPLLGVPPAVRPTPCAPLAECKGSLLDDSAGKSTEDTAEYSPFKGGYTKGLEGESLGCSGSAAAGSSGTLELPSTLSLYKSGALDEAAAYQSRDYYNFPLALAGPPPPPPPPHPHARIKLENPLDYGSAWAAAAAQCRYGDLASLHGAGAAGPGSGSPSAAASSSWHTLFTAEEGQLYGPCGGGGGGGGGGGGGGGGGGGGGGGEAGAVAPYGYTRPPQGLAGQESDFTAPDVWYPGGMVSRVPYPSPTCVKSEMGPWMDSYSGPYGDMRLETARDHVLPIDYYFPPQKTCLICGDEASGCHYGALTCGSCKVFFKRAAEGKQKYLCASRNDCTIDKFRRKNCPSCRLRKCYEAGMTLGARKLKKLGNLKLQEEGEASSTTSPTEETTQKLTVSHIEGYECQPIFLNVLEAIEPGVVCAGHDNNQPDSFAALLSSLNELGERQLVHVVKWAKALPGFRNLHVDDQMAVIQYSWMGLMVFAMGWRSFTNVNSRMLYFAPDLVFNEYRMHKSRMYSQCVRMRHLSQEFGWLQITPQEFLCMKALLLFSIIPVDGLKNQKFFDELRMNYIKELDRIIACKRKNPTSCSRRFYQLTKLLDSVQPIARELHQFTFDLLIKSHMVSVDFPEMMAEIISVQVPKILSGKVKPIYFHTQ
Excerpt: The yeast host strain used to make these four strains, W303, has his3, trp1 and ura3 mutations, so that growth on media lacking tryptophan, histidine and uracil requires the presence of all three plasmids. The URA3-marked steroid receptor-mediated β-galactosidase reporter plasmid (pUCΔss-26X) was the gift of Dr. Brian Freeman, University of Illinois. The pleiotropic drug resistance 5 (PDR5) gene was deleted in this strain, because PDR5 is an ATP-binding cassette transporter that could potentially transport the test compounds out of the cells, thereby hindering their identification. By deleting PDR5, this potential problem is avoided. […]
(§1) The strains were cultivated overnight using a shaking incubator in SC-HUW medium (synthetic complete medium lacking histidine, uracil and tryptophan). […] About one hour later, the plate was read in a luminometer. The measured RLU (relative light units) was normalized to the cell density of the cultures, at the time they were added to the plates, to give a measure of RLU/OD unit. […]
The inventors began testing compounds in the assay by starting with a standard concentration of about 50 μM for all compounds tested. […] The plates are incubated for approximately another 1-3 hours, preferable about 1 hour and 30 minutes, and the light emission is measured on a microplate luminometer (Luminoskan Ascent, Thermo Labsystems). […]

[1] = test system: FKBP52-enhanced AR function; assay: Yeast AR-mediated β-galactosidase reporter assay, tester strain (AR-P723S + FKBP52); type: cell-based; conditions: DHT-induced β-galactosidase reporter
Excerpt: To investigate FTA inhibitory activity, a modified yeast-based assay was created to screen an in-house compound library. The receptor-mediated β-galactosidase assays were initially based on published methods ((Riggs D L, et al., EMBO J., 22:1158-67 (2003); Cox M B, et al., Toxicol. Lett. 129:13-21 (2002) and Balsiger, H. A., and Cox, M. B., in Methods in Molecular Biology: The Nuclear Receptor Superfamily, vol. 505. Edited by I. J. McEwan. The Humana Press, Totowa, N.J. (2008)), however, the assay methods were modified substantially to allow use of a 96-well plate format. All cDNAs for the FKBP proteins were obtained from the laboratory of David Smith at the Mayo Clinic, Arizona. The AR-P723S mutant was originally described previously (Cheung-Flynn, J. et al. (2005)).
All receptors and FKBP proteins were expressed from a set of yeast expression vectors that are commercially available (Mumberg, D., et al., Gene 156: 119-122 (1995)). […]
as §1

effect on AR function alone (wild type human AR): does not affect AR function alone | inhibition of FKBP52-enhanced AR function [1]: inhibits FKBP52-enhanced AR function
SMILES: Cc1ccc(NC(=O)c2ccccc2C(=O)O)cc1C [Compound 1]
